pIC50: −log10 of the molar value.
Columns and labels:
Format in all cases: cell-based
human TLR7 = biological target: T1, human TLR7 (Homo sapiens, UniProt Q9NYK1); experiment: TLR7 inhibition reporter assay (HEK-Blue cells, SEAP reporter, gardiquimod stimulation); conditions: HEK-Blue cells overexpressing human TLR7, SEAP reporter, gardiquimod 7.5 μM
T1 construct: host or cells: HEK-Blue cells
T1 sequence (Q9NYK1 27-1049): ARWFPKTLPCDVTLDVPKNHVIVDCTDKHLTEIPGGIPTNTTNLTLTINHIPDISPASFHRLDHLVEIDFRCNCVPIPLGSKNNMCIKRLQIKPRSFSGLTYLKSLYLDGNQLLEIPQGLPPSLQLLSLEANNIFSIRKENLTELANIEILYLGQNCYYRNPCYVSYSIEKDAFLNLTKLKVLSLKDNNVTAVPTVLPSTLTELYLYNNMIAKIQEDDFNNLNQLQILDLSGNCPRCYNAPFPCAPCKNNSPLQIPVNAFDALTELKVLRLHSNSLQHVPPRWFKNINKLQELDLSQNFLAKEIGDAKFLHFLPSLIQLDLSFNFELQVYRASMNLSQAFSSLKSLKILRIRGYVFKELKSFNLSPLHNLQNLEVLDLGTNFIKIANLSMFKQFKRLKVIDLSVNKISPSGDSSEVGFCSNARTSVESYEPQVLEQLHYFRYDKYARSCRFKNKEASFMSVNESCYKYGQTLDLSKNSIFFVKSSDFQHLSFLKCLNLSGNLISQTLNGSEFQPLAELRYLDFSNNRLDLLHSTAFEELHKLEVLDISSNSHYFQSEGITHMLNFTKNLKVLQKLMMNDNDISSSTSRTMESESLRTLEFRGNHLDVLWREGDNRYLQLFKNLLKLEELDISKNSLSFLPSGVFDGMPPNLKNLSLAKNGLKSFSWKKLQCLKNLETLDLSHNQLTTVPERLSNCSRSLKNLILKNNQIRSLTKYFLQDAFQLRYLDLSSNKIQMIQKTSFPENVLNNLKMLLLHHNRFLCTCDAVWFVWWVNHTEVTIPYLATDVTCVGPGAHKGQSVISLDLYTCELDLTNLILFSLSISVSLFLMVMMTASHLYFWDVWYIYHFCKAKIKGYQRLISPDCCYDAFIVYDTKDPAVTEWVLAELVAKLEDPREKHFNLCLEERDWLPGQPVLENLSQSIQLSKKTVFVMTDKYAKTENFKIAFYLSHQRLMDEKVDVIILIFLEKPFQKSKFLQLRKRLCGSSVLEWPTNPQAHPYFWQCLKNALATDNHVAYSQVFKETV
Procedure, shortened: (§1)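 Ligand levels: TLR7 gardiquimod 7.5 μM, TLR8 R848 15.9 μM, TLR9 ODN2006 5 nM, added after 30 min room-temperature compound pre-incubation at 0.05 nM-50 μM. Reporter SEAP read with HEK-Blue Detection reagent after 22 h, 37° C. Inhibition expressed as % reduction relative to agonist-plus-DMSO and known-inhibitor controls.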

human TLR8 = biological target: T2, human TLR8 (Homo sapiens, UniProt Q9NR97); experiment: TLR8 inhibition reporter assay (HEK-Blue cells, SEAP reporter, R848 stimulation); conditions: HEK-Blue cells overexpressing human TLR8, SEAP reporter, R848 15.9 μM
T2 construct: host or cells: HEK-Blue cells
T2 sequence (Q9NR97 27-1041): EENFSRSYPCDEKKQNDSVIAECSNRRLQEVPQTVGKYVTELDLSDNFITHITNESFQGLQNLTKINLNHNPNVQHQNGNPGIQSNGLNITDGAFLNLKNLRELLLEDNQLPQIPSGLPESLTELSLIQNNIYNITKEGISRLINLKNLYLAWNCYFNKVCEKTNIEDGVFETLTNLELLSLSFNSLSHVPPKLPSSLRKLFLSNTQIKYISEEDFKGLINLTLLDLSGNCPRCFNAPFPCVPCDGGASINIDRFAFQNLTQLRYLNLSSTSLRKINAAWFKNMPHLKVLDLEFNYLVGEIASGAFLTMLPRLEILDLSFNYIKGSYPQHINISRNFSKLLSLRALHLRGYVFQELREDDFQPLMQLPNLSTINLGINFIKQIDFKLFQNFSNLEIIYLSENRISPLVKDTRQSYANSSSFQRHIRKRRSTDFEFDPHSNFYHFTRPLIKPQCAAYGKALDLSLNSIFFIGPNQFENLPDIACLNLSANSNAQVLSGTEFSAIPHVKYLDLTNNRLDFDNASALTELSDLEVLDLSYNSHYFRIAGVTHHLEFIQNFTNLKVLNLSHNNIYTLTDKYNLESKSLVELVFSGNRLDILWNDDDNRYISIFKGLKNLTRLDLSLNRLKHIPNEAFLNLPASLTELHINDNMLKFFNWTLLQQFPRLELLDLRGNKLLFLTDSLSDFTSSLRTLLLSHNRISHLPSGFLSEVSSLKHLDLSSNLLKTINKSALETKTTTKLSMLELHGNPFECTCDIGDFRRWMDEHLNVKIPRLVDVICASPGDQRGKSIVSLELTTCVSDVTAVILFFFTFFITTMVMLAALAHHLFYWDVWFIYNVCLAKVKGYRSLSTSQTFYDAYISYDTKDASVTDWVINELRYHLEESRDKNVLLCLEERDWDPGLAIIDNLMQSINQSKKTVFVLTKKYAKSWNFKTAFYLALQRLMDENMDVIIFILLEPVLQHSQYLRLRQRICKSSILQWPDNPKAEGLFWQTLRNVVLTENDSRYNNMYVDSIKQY
Procedure, shortened: as §1

human TLR9 = biological target: T3, human TLR9 (Homo sapiens, UniProt Q9NR96); experiment: TLR9 inhibition reporter assay (HEK-Blue cells, SEAP reporter, ODN2006 stimulation); conditions: HEK-Blue cells overexpressing human TLR9, SEAP reporter, ODN2006 5 nM
T3 construct: host or cells: HEK-Blue cells
T3 sequence (Q9NR96 26-1032): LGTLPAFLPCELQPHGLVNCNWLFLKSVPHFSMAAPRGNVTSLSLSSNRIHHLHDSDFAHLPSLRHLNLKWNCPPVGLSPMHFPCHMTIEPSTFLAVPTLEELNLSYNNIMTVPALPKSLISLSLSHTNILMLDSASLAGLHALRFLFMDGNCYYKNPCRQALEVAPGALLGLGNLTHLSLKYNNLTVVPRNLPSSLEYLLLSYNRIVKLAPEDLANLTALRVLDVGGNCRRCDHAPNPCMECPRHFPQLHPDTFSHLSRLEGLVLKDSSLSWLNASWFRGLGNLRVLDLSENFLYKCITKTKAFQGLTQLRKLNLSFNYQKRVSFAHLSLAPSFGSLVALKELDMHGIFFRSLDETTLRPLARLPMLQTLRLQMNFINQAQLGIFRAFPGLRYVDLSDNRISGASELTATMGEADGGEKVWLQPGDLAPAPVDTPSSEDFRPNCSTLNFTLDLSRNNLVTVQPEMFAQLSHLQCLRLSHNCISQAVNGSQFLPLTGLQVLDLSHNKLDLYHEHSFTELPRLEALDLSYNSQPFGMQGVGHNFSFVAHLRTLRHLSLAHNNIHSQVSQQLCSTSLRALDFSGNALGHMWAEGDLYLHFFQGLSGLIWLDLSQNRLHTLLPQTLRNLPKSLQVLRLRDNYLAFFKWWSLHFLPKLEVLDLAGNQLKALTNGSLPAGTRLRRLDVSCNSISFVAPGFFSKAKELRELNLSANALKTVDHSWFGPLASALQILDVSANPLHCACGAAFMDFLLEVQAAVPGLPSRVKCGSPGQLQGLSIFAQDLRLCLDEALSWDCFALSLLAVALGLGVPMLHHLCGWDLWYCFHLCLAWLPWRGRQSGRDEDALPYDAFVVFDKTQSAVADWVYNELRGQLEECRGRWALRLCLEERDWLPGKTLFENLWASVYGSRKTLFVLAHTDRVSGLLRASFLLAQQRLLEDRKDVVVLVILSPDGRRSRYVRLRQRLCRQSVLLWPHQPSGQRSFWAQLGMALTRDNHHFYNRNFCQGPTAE
Procedure, shortened: as §1

pIC50 (human TLR7) | pIC50 (human TLR8) | pIC50 (human TLR9) | Structure (SMILES)
7.47 | 7.82 | 5.05 | Cc1c(-c2[nH]c3ccc(C4CCC(NCC(=O)N(C)C)CC4)cc3c2C(C)C)cn(C)c(=O)c1C (stereo not drawn) [Example 473]
7.54 | 7.18 | 4.75 | Cc1c(-c2[nH]c3ccc(C4CC5CN(CC(=O)N(C)C)CC5C4)cc3c2C(C)C)cn2cnnc2c1C (stereo not drawn) [Example 520]
9.00 | 7.74 | 4.80 | Cc1c(-c2[nH]c3ccc(C4CC5CN(CCS(C)(=O)=O)CC5C4)cc3c2C(C)C)cn2ncnc2c1C (stereo not drawn) [Example 514]
6.27 | 7.15 | 6.39 | CCc1c(-c2ccnc(C)c2)[nH]c2ccc(CNC(=O)C3CCN(C)CC3)cc12 [Example 446]
8.70 | 8.96 | 4.57 | Cc1c(-c2[nH]c3ccc(C4CC(NCC#N)C4)cc3c2C(C)C)cn2ncnc2c1C (stereo not drawn) [Example 567]
7.62 | 8.54 | 5.68 | CC(C)c1c(-c2ccnc3[nH]ncc23)[nH]c2ccc(CC3CCNCC3)cc12 [Example 424]
8.70 | 8.74 | 5.09 | Cc1c(-c2[nH]c3ccc(C4CCC(NC5COC5)CC4)cc3c2C(C)C)cn(C)c(=O)c1C (stereo not drawn) [Example 477]
9.03 | 8.21 | 4.91 | Cc1c(-c2[nH]c3ccc(C4CC5CN(CC(N)=O)CC5C4)cc3c2C(C)C)cn2ncnc2c1C (stereo not drawn) [Example 511]

Further lines, the compound ahead of its results:

Structure (SMILES) | pIC50 (human TLR7) | pIC50 (human TLR8) | pIC50 (human TLR9)
CNC(=O)CN1CCOC(c2ccc3[nH]c(-c4cc(C)c5ncnn5c4)c(C(C)C)c3c2)C1 (stereo not drawn) [Example 307] | 8.10 | 7.33 | < 4.30
CNC(=O)CNC1CCC(c2ccc3[nH]c(-c4cc(C)c5ncnn5c4)c(C(C)C)c3c2)CC1 (single isomer, unassigned) [Example 163, 2-((4-(3-isopropyl-2-(8-methyl-[1,2,4]triazolo[1,5-a]pyridin-6-yl)-1H-indol-5-yl)cyclohexyl)amino)-N-methylacetamide] | 9.20 | 9.19 | 5.65
Cc1cc(-c2[nH]c3ccc(C4CCCN(C(=O)C5(C)COC5)C4)cc3c2C(C)C)cc(C)n1 (stereo not drawn) [Example 204] | 8.40 | 7.26 | < 4.30
CNCCN1CCCC(c2ccc3[nH]c(-c4ccnc(C)c4)c(C(C)C)c3c2)C1 (stereo not drawn) [Example 256] | 6.65 | 8.49 | 6.21
COc1cc(-c2[nH]c3ccc(C4CCC(NC(C)=O)CC4)cc3c2C(C)C)cn2ncnc12 (single isomer, unassigned) [Example 115, N-(4-(3-isopropyl-2-(8-methoxy-[1,2,4]triazolo[1,5-a]pyridin-6-yl)-1H-indol-5-yl)cyclohexyl)acetamide] | 9.00 | 7.89 | 4.79
Cc1cc(-c2[nH]c3ccc(C4CN(CC5(C)COC5)CCO4)cc3c2C(C)C)cn2ncnc12 (stereo not drawn) [Example 292] | 7.66 | 8.55 | 4.47
COc1cc(-c2[nH]c3ccc(C4CCC(N5CCC[C@H]5C(N)=O)CC4)cc3c2C(C)C)cn2ncnc12 (stereo partly drawn) [Example 31] | 9.00 | 8.21 | 5.68
Cc1c(-c2[nH]c3ccc(C4CCC(NC5(C)COC5)CC4)cc3c2C(C)C)cn2ncnc2c1C (stereo not drawn) [Example 48] | 9.26 | 9.40 | 5.73
COc1cc(-c2[nH]c3ccc(C4CCC(N(C)OC)CC4)cc3c2C(C)C)cn2ncnc12 (stereo not drawn) [Example 99] | 8.15 | 7.28 | 4.82
COc1cc(-c2[nH]c3ccc(C4CCC(N5CC(F)C5)CC4)cc3c2C(C)C)cn2ncnc12 (stereo not drawn) [Example 23] | 8.70 | 8.04 | 5.55
COc1cc(-c2[nH]c3ccc(CCN4CCCC4)cc3c2C(C)C)cn2ncnc12 [Example 414] | 8.52 | 8.40 | 5.35
Cc1cc(-c2[nH]c3ccc(C4CCCN(C(=O)CN5CCOCC5)C4)cc3c2C(C)C)cc(C)n1 (stereo not drawn) [Example 197] | 8.70 | 7.80 | 4.35
COc1cc(-c2[nH]c3ccc(C4CCC(N5CC(F)(F)C5)CC4)cc3c2C(C)C)cn2ncnc12 (stereo not drawn) [Example 19] | 7.59 | 6.66 | 4.54
COc1cc(-c2[nH]c3ccc(C4CN(C(=O)CN5CCS(=O)(=O)CC5)CCO4)cc3c2C(C)C)cn2ncnc12 (stereo not drawn) [Example 360] | 7.96 | 7.17 | < 4.30
Cc1cc(-c2[nH]c3ccc(C4CCC(O)(C(F)(F)F)CC4)cc3c2C(C)C)cc(C)n1 (stereo not drawn) [Example 175, 4-(2-(2,6-dimethylpyridin-4-yl)-3-isopropyl-1H-indol-5-yl)-1-(trifluoromethyl)cyclohexanol] | 7.43 | 6.92 | 5.67
Cc1cc(-c2[nH]c3ccc(C4CN(C5COC5)CCO4)cc3c2C(C)C)cn2ncnc12 (stereo not drawn) [Example 290] | 7.44 | 6.75 | < 4.30

From patent US11878975B2, “Substituted indole compounds useful as TLR inhibitors” (BRISTOL-MYERS SQUIBB COMPANY, priority 2017, dated 2024)
